{
  "source": "patent US7655819B2",
  "about": "“Polymers with antimicrobial, bioresistant and fungal resistant properties” (TPAT IP LLC, priority 2002, dated 2010)",
  "key": {"[1]": {"tested_on": "various strains of both gram positive and gram negative bacteria", "conditions": "cited from earlier work"}, "[2]": {"tested_on": "fungus", "conditions": "cited from earlier work"}, "[3]": {"conditions": "prior art; cited from earlier work"}, "[4]": {"tested_on": "nematodes in the soil", "conditions": "prior art; cited from earlier work"}, "[5]": {"tested_on": "bacteria (bacterial count)", "test": "ASTM D-3946-92 testing of metalworking fluid Encool SS with product incorporated", "format": "cell-based", "conditions": "day 5, 1×10^7 without product", "method": "1,128 g oleic acid and 400 g BNPD plus 2 g sulfuric were charged in a three neck round bottom flask with agitation, nitrogen, and condenser and heated to 350 F and held for 2.5 hrs until 80 ml of water were recovered. This product was then incorporated into Engineered Lubricants Encool SS at 6% and 10% of the concentrate.\nThese samples were then submitted for ASTM D-3946-92 testing."}},
  "data": [
    {"compound": "O=[N+]([O-])C(Br)(CO)CO", "note": "[BNPD, 2-bromo-2-nitro-propane-1-3-diol]", "values": [
      {"measurement": "average minimum inhibitory concentration", "setting": "[1]; average over gram positive and gram negative strains", "result": "around 25 ppm"},
      {"measurement": "effective concentrations against bacteria", "setting": "[1]; various strains of gram positive and gram negative bacteria", "result": "1-50 ppm"},
      {"measurement": "antifungal activity", "setting": "[2]", "result": "antifungal"}
    ]},
    {"compound": "O=[N+]([O-])CBr", "note": "[bromonitromethane]", "values": [
      {"measurement": "effectiveness as a general biocide", "setting": "[3]", "result": "effective"},
      {"measurement": "effectiveness for the treatment of nematodes in the soil", "setting": "[4]", "result": "effective"}
    ]},
    {"compound": "CCCCCCC/C=C/CCCCCCCCC(=O)OCC(Br)(COC(=O)CCCCCCCC/C=C/CCCCCCC)[N+](=O)[O-]", "note": "[Example 7]", "values": [
      {"measurement": "bacterial count", "setting": "[5]; 6% incorporation in Encool SS concentrate", "result": "1.5×10^4"},
      {"measurement": "bacterial count", "setting": "[5]; 10% incorporation in Encool SS concentrate", "result": "3×10^3"}
    ]}
  ]
}
